Source: ChEMBL document CHEMBL1122101, “Synthesis and tissue distribution study of iodine-labeled benzyl- and xylylamines” (J Med Chem, 1982)

What was measured:
Rattus norvegicus [1] = assay: Evaluated for biodistribution in rat kidney after 1 min of administration; assay type: ADME, organism-based; settings: in vivo
Rattus norvegicus [2] = assay: Evaluated for biodistribution in rat liver after 2 min of administration; assay type: ADME, organism-based; settings: in vivo
Rattus norvegicus [3] = assay: Evaluated for biodistribution in rat lung after 6 min of administration; assay type: ADME, organism-based; settings: in vivo, 0.1 h
Rattus norvegicus [4] = assay: Evaluated for biodistribution in rat brain after 6 min of administration; assay type: ADME, organism-based; settings: in vivo, 0.1 h
Rattus norvegicus [5] = assay: Evaluated for biodistribution in rat heart after 6 min of administration; assay type: ADME, organism-based; settings: in vivo, 0.1 h
Rattus norvegicus [6] = assay: Evaluated for biodistribution in rat kidney after 2 min of administration; assay type: ADME, organism-based; settings: in vivo
Rattus norvegicus [7] = assay: Evaluated for biodistribution in rat liver after 6 min of administration; assay type: ADME, organism-based; settings: in vivo, 0.1 h
Rattus norvegicus [8] = assay: Evaluated for biodistribution in rat brain after 1 min of administration; assay type: ADME, organism-based; settings: in vivo
Rattus norvegicus [9] = assay: Evaluated for biodistribution in rat lung after 1 min of administration; assay type: ADME, organism-based; settings: in vivo
Rattus norvegicus [10] = assay: Evaluated for biodistribution in rat blood after 2 min of administration; assay type: ADME, organism-based; settings: in vivo
Rattus norvegicus [11] = assay: Evaluated for biodistribution in rat brain after 2 min of administration; assay type: ADME, organism-based; settings: in vivo
Rattus norvegicus [12] = assay: Evaluated for biodistribution in rat blood after 1 min of administration; assay type: ADME, organism-based; settings: in vivo
Rattus norvegicus [13] = assay: Evaluated for biodistribution in rat heart after 1 min of administration; assay type: ADME, organism-based; settings: in vivo
Rattus norvegicus [14] = assay: Evaluated for biodistribution in rat blood after 6 min of administration; assay type: ADME, organism-based; settings: in vivo, 0.1 h
Rattus norvegicus [15] = assay: Evaluated for biodistribution in rat lung after 2 min of administration; assay type: ADME, organism-based; settings: in vivo
Rattus norvegicus [16] = assay: Evaluated for biodistribution in rat thyroid after 6 min of administration; assay type: ADME, organism-based, Thyroid gland; settings: in vivo, 0.1 h
Rattus norvegicus [17] = assay: Evaluated for biodistribution in rat thyroid after 2 min of administration; assay type: ADME, organism-based, Thyroid gland; settings: in vivo
Rattus norvegicus [18] = assay: Evaluated for biodistribution in rat heart after 2 min of administration; assay type: ADME, organism-based; settings: in vivo
Rattus norvegicus [19] = assay: Evaluated for biodistribution in rat thyroid after 1 min of administration; assay type: ADME, organism-based, Thyroid gland; settings: in vivo
Rattus norvegicus [20] = assay: Evaluated for biodistribution in rat liver after 1 min of administration; assay type: ADME, organism-based; settings: in vivo
Rattus norvegicus [21] = assay: Evaluated for biodistribution in rat kidney after 6 min of administration; assay type: ADME, organism-based; settings: in vivo, 0.1 h
[22] = Evaluated for the carrier level on brain uptake at 4 mg/kg dose in rat; assay type: ADME, organism-based; design: dose 4 mg/kg; settings: in vivo
[23] = Evaluated for the carrier level on brain uptake at 0.04 mg/kg dose in rat; assay type: ADME, organism-based; design: dose 0.04 mg/kg; settings: in vivo
[24] = Evaluated for the carrier level on brain uptake at 40 mg/kg dose in rat; assay type: ADME, organism-based; design: dose 40 mg/kg; settings: in vivo
[25] = Evaluated for the carrier level on brain uptake at 0.4 mg/kg dose in rat; assay type: ADME, organism-based; design: dose 0.4 mg/kg; settings: in vivo

Biodistribution (Rattus norvegicus [1])	Biodistribution (Rattus norvegicus [2])	Biodistribution (Rattus norvegicus [3])	Biodistribution (Rattus norvegicus [4])	Biodistribution (Rattus norvegicus [5])	Biodistribution (Rattus norvegicus [6])	Biodistribution (Rattus norvegicus [7])	Biodistribution (Rattus norvegicus [8])	Biodistribution (Rattus norvegicus [9])	Biodistribution (Rattus norvegicus [10])	Biodistribution (Rattus norvegicus [11])	Biodistribution (Rattus norvegicus [12])	Biodistribution (Rattus norvegicus [13])	Biodistribution (Rattus norvegicus [14])	Biodistribution (Rattus norvegicus [15])	Biodistribution (Rattus norvegicus [16])	Biodistribution (Rattus norvegicus [17])	Biodistribution (Rattus norvegicus [18])	Biodistribution (Rattus norvegicus [19])	Biodistribution (Rattus norvegicus [20])	Structure (SMILES)	further results
1.03%	11.81%	0.04%	0.022%	0.014%	10.12%	0.45%	0.07%	0.19%	7.01%	2.42%	1.35%	0.06%	0.35%	2.9%	0.035%	0.11%	0.59%	0.01%	1.92%	CN(C)Cc1ccccc1I	Biodistribution (Rattus norvegicus [21]): 0.34%
6.19%	9.52%	1.96%	1.51%	0.19%	7.69%	7.81%	2.36%	4.36%	3.52%	2.4%	0.83%	0.44%	0.42%	22.63%	0.14%	0.28%	2.76%	0.11%	18.31%	CN(C)Cc1ccc(I)c(CN(C)C)c1	Brain uptake [22]: 2.09%; Brain uptake [23]: 2.67%; Brain uptake [24]: 2.43%; Brain uptake [25]: 3.03%; Biodistribution (Rattus norvegicus [21]): 2.98%
7.75%	12.5%	1.75%	0.7%	0.18%	7.33%	9.2%	1.47%	6.65%	4.11%	1.7%	1.6%	0.51%	0.77%	26.54%	0.11%	0.22%	3.19%	0.15%	13.51%	Ic1ccc(CN2CCCCC2)cc1CN1CCCCC1	Biodistribution (Rattus norvegicus [21]): 1.97%
6.71%	10.22%	8.71%	0.59%	0.83%	6.93%	5.17%	0.64%	13.02%	6.42%	0.62%	1.76%	1.99%	1.33%	31.98%	0.45%	0.18%	2.18%	0.27%	8.38%	CC(C)NCc1ccc(I)c(CNC(C)C)c1	Biodistribution (Rattus norvegicus [21]): 3.4%
